Test results from patent US8426437B2, “Pyrroloquinoline derivatives and their use as protein kinases inhibitors” (Pierre Fabre Medicament, priority 2005, dated 2013).

Experiments:
Format in all cases: biochemical
[1] = target: T1, TrkB (Homo sapiens, UniProt Q16620); assay: Inhibition of kinase TrkB (Kinase-Glo); settings: TrkB 4 μg/ml, 40 μM ATP, two hours at 30° C.
T1 construct: purchased Upstate 14-507
Description: Protein TrkB (Upstate 14-507; batch #25578U) is incubated at a concentration of 4 μg/ml in a buffer containing 8 mM of MOPS/NaOH pH7, 0.2 mM EDTA, 40 mM MgAc (Sigma #229768), 1 mM DTT (Fluka #43816), NaOV 1 mM, 25 mM 2-glycerolphosphate (Sigma #G9891), in the presence of 2.5 mg/ml of peptide substrate poly-EY (Upstate #P0275), and 40 μM of ATP.
The dilution buffer for TrkB is as follows: 20 mM MOPS/NaOH pH7, 1 mM EDTA, 5% glycerol, 0.01% Brij35, 0.1% 2-mercapto, 1 mg/ml BSA.
(§1) The compound to be tested is first added to the enzyme to give a reaction volume of 50 μl. The dilution of the compounds of the invention is distributed so as to obtain a scale of final concentrations between 10 nM and 30 μM.
(§2) After incubation of the reaction mixture for two hours at 30° C., the level of ATP that remains is assayed using the Kinase-Glo Luminescent Kinase Assay (Promega #V6712) according to the conditions recommended by the supplier. The luminescence induced is read in a plate reader (Envision-Perkin Elmer).

[2] = target: T2, RET (Homo sapiens, UniProt P07949); assay: Inhibition of RET kinase activity, recombinant RET method (Kinase-Glo); settings: RET 2 μg/ml, poly-EY4 substrate, 20 μM ATP, two hours at 30° C.
T2 construct: purchased Upstate 14-570MG
How it was run: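 Recombinant RET at 2 μg/ml in 20 mM MOPS/NaOH pH 7.0, 1 mM EDTA, 5% glycerol, 0.01% Brij35, 0.1% 2-mercaptoethanol, 1 mg/ml BSA; compounds 10 nM–30 μM final.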

[3] = target: T3, TrkA (Homo sapiens, UniProt P04629); assay: Inhibition of kinase TrkA (Kinase-Glo); settings: TrkA 4 μg/ml, 30 μM ATP, two hours at 30° C.
T3 construct: purchased Upstate 14-571
Description: Protein TrkA (Upstate 14-571; batch #25634U) is incubated at a concentration of 4 μg/ml in a buffer containing 8 mM of MOPS/NaOH pH7, 0.2 mM EDTA, 40 mM MgAc (Sigma #229768), 1 mM DTT (Fluka #43816), NaOV 1 mM, 0.01% Triton Tx100, in the presence of 1 mg/ml of peptide substrate poly-EY (Upstate #P0275), and 30 μM of ATP.
The dilution buffer for TrkA is as follows: 20 mM MOPS/NaOH pH7, 1 mM EDTA, 5% glycerol, 0.01% Brij35, 0.1% 2-mercapto, 1 mg/ml BSA.
as §1, §2

[4] = target: T4, PIM-1 (Homo sapiens, UniProt P11309); assay: Inhibition of kinase PIM-1 (Kinase-Glo); settings: PIM-1 0.625 μg/ml, 10 μM ATP, forty minutes at 30° C.
T4 construct: purchased Upstate 14-573
How it was run: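 PIM-1 (0.625 μg/ml) in MOPS/NaOH pH 7 with Mg acetate was run with 70 μM S6 kinase/Rsk2 peptide and 10 μM ATP, with compound at 10 nM–30 μM final.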

[5] = target: ALK (Homo sapiens, UniProt Q9UM73); assay: Inhibition of kinase ALK (PLCγ1-GST substrate, anti-phosphotyrosine ELISA); settings: ALK 180 ng/ml, 250 μM ATP, 30 minutes at 30° C.
Description: Incubation is carried out for 30 minutes at 30° C. with agitation.
The signal is read in luminescent mode using a luminometer.

T2 sequence (P07949 29-1114): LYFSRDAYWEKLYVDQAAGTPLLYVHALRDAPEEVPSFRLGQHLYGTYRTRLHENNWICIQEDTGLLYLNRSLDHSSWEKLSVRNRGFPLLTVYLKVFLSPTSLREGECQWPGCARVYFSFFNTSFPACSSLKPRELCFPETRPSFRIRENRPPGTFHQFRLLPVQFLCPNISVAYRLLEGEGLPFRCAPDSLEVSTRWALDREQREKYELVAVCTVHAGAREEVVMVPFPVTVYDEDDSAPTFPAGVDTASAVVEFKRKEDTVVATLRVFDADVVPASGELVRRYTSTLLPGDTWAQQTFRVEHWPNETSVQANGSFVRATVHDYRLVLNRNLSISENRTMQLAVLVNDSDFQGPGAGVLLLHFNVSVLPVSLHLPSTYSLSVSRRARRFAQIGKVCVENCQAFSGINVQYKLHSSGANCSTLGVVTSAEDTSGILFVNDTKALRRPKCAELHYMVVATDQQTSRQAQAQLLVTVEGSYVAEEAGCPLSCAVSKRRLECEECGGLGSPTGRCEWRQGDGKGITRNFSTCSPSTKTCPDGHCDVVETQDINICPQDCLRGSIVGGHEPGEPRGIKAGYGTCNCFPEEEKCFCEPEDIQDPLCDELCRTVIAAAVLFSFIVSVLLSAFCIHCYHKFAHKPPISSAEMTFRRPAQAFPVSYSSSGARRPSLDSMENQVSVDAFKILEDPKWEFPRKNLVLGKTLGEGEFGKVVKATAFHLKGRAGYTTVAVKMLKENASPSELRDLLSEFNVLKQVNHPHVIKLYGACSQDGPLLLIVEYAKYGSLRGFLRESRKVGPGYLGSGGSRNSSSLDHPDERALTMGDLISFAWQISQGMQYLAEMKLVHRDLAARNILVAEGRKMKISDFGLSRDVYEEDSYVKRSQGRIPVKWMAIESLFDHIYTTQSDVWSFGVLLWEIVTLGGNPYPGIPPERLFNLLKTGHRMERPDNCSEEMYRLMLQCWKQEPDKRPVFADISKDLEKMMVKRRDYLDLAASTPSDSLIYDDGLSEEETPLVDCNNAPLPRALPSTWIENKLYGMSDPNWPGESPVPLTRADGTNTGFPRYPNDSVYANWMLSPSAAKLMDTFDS
Sequence of ALK (Q9UM73 19-1620, species assumed): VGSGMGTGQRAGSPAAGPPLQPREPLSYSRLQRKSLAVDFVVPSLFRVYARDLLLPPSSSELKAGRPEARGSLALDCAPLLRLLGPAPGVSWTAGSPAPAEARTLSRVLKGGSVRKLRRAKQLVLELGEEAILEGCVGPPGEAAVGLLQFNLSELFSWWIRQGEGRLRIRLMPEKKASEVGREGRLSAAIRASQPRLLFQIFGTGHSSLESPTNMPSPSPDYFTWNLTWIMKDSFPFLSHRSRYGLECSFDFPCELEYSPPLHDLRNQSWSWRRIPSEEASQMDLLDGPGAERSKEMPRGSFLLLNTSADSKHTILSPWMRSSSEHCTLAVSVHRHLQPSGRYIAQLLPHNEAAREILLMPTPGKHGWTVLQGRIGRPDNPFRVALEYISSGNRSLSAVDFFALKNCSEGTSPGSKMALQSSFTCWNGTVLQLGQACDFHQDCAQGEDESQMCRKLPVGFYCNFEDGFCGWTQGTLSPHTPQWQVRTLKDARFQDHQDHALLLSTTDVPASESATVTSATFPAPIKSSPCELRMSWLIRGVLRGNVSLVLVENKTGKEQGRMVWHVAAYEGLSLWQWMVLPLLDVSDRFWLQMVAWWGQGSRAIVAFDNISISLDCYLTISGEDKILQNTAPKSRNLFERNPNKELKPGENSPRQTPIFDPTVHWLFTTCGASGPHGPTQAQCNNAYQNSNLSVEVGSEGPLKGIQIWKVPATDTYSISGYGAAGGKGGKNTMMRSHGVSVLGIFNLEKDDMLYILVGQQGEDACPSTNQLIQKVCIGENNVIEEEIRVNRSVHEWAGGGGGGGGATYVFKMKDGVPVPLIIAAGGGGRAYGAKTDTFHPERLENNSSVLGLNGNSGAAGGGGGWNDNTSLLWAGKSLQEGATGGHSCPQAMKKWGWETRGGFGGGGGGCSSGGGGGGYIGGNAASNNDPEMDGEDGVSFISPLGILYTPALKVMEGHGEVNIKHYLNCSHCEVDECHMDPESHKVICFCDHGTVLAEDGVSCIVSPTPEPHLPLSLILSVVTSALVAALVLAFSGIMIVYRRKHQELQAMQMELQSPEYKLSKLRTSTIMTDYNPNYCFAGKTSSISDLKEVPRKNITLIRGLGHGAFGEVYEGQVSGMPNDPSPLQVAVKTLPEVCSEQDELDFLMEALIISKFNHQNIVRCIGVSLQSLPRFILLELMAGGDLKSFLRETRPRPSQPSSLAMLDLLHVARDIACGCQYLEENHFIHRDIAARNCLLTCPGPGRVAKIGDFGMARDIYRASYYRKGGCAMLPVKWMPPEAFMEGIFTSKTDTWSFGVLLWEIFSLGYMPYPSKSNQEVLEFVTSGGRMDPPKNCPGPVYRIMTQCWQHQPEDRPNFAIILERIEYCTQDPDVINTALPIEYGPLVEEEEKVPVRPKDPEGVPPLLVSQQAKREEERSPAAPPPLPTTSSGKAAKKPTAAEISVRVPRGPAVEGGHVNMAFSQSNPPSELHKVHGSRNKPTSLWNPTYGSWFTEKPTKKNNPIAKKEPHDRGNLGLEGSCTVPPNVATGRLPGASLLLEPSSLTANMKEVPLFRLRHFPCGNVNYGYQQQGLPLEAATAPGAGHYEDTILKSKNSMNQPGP
T4 sequence (P11309 whole entry): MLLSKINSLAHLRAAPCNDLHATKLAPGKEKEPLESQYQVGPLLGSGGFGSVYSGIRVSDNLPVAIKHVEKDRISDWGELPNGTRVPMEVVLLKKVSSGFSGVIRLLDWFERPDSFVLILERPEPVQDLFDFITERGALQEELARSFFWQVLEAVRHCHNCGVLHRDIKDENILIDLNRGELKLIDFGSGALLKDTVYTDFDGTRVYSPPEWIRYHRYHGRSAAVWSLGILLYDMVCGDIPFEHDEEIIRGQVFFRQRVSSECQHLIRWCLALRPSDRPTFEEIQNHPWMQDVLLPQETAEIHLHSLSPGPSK
T3 sequence (P04629 33-796): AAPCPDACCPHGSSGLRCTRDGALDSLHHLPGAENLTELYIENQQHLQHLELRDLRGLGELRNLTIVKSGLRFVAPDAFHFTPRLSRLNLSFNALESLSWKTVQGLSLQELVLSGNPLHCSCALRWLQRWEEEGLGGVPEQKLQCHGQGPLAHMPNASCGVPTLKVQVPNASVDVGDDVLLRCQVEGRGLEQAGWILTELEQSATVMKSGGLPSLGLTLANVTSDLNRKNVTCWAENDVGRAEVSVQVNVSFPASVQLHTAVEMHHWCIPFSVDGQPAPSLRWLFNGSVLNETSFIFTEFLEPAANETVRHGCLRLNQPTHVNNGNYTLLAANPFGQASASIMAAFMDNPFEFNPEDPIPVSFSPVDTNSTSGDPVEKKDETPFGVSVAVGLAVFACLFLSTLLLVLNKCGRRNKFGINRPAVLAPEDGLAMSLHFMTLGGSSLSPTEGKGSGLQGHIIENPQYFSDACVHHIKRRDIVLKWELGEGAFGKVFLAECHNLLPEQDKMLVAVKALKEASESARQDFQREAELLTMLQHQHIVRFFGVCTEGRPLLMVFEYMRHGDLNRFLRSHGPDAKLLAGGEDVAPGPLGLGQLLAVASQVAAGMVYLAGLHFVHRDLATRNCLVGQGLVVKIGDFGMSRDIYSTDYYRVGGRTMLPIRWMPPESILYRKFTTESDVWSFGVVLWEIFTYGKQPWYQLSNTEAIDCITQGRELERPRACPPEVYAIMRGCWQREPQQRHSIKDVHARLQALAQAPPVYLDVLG
T1 sequence (Q16620 32-822): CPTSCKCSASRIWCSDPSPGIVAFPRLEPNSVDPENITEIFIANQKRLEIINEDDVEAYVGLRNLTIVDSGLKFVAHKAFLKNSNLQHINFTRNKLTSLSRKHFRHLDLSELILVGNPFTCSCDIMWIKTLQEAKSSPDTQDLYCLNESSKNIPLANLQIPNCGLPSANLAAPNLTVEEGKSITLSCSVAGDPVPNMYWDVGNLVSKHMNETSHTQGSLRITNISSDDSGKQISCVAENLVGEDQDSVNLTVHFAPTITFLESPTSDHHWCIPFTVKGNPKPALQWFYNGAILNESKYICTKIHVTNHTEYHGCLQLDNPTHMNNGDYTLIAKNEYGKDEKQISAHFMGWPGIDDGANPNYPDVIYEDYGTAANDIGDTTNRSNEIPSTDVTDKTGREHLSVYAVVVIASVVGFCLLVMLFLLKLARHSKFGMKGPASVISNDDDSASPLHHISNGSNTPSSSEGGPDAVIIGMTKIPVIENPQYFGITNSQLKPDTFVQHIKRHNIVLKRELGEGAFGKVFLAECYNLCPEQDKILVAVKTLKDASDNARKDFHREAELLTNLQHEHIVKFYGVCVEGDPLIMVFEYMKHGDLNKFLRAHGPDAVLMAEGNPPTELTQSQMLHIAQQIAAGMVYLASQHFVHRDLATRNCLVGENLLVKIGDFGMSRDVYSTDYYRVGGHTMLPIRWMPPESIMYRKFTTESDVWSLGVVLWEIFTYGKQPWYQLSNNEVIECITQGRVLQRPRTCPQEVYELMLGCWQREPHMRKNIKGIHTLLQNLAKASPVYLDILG

IC50 [1] [nM] | IC50 [2] [nM] | IC50 [3] [nM] | IC50 [4] [nM] | IC50 [5] [nM] | SMILES
1000 to 10000 | 100 to 1000 | 1000 to 10000 | 10000 to 100000 | 100 to 1000 | CCOC(=O)c1c[nH]c2c(=O)[nH]c3ccc(-c4csc(Nc5ccccc5)n4)cc3c12 [Compound 271, 4-Oxo-8-(2-phenylamino-thiazol-4-yl)-4,5-dihydro-3H-pyrrolo[2,3-c]quinoline-1-ethyl carboxylate]
 | 100 to 1000 |  | 10000 to 100000 | 10000 to 100000 | CCOC(=O)c1c[nH]c2c(=O)[nH]c3ccc(S(=O)(=O)NCCCN(C)C)cc3c12 [Compound 32, 8-(3-Dimethylamino-propylsulfamoyl)-4-oxo-4,5-dihydro-3H-pyrrolo[2,3-c]quinoline-1-ethyl carboxylate]
 | 100 to 1000 |  | 10000 to 100000 | 1000 to 10000 | CCOC(=O)c1c[nH]c2c(=O)[nH]c3ccc(S(=O)(=O)NCCCCN)cc3c12 [Compound 33, 8-(4-Amino-butylsulfamoyl)-4-oxo-4,5-dihydro-3H-pyrrolo[2,3-c]quinoline-1-ethyl carboxylate]
 | 100 to 1000 |  | 1000 to 10000 | 100 to 1000 | CCOC(=O)c1c[nH]c2c(=O)[nH]c3ccc(S(=O)(=O)NC4CCNCC4)cc3c12 [Compound 91, 4-oxo-8-(piperidin-4-ylsulfamoyl)-4,5-dihydro-3H-pyrrolo[2,3-c]quinoline-1-ethyl carboxylate]
 | 100 to 1000 |  | 1000 to 10000 | 1000 to 10000 | COC(=O)c1c[nH]c2c(=O)[nH]c3ccc(S(=O)(=O)NC4CCNCC4)cc3c12 [Compound 113, 4-Oxo-8-(piperidin-4-ylsulfamoyl)-4,5-dihydro-3H-pyrrolo[2,3-c]quinoline-1-methyl carboxylate]
 | 1000 to 10000 |  | 1000 to 10000 | 100 to 1000 | COC(=O)c1c[nH]c2c(=O)[nH]c3ccc(S(=O)(=O)NC4CCCNC4)cc3c12 (centres unmarked) [Compound 112, 4-Oxo-8-(piperidin-3-ylsulfamoyl)-4,5-dihydro-3H-pyrrolo[2,3-c]quinoline-1-methyl carboxylate]
